Assay results reported in paper PMC9804084, “Multiple drug transporters contribute to the brain transfer of levofloxacin” (CNS Neuroscience & Therapeutics, 2022).
Where two headings read alike, the source gives them in different places.

Target: T1, Breast cancer resistance protein (BCRP) (Rattus norvegicus, UniProt Q80W57)
T1 construct: from tissue; host or cells: living rat (blood-brain barrier, choroid plexus)
T1 sequence (Q80W57 1-657): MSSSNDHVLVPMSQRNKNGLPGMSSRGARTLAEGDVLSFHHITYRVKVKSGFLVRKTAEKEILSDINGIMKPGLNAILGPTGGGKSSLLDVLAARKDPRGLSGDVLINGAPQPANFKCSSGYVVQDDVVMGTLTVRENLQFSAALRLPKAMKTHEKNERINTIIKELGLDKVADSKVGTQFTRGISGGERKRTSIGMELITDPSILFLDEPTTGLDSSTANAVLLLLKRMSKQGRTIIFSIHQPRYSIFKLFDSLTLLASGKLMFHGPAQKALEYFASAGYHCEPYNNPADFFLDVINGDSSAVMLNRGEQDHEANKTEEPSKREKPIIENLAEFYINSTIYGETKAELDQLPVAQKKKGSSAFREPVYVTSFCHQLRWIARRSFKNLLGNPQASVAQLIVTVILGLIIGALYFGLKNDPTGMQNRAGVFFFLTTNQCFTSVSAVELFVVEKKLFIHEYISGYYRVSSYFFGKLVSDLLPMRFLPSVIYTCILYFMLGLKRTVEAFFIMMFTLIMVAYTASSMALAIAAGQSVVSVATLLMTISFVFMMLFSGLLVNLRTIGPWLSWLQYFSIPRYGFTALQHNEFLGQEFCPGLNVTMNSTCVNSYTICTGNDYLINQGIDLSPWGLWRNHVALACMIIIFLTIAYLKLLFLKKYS
Assay: In vivo microdialysis pharmacokinetics of LVFX with BCRP inhibitor Ko143
Conditions: intravenous, with Ko143 15 mg/kg i.p., Ko143 group, Ko143 15 mg/kg i.p. + LVFX 50 mg/kg; for MRT / AUC(0-inf) / Cmax / half-life / AUC(0-t): mean ± SD; for MRT / Tmax / AUC(0-inf) / Cmax / half-life: N=5; for AUC(0-t): N=5, read-out: AUC0–180 (converted)
Procedure: On the day of surgery, rats were anesthetized using inhaled isoflurane via a facemask. The rats were placed in a stereotaxic frame (Gene&I), and the body temperature was maintained with a homoeothermic blanket set at 37°C. A midline incision was made to expose the skull. According to the Paxinos and Watson atlas, two microdialysis intracerebral guide cannulae (Eicom Co.) were implanted into the hippocampus CA1 region (Hp‐CA1 coordinates: AP −4.16 mm; ML −2.2 mm; DV −2.9 mm) and lateral ventricle (LV coordinates: AP −1.4 mm; ML +2.2 mm; DV −3.4 mm). Fixed to the skull using a screw and dental cement. After 3 days of recovery, the rats were anesthetized with isoflurane again. An intravascular probe (TP‐100‐20; 20 mm, Eicom Co.) was implanted into the jugular vein toward the right atrium. After the blood microdialysis probe was positioned within the jugular vein, the pipeline was connected to perfuse with ACD solution (citric acid 3.5 mM; sodium citrate 7.5 mM; dextrose 13.6 mM) at a flow rate of […], and the Hamilton microinjection pump was used for continuous perfusion. After stopping isoflurane inhalation, the rats were allowed to wake up naturally on the homoeothermic blanket. The awake rats were placed in a device that allowed them to move freely. Animals were allowed to recover for an additional 24 h.
All microdialysate concentrations (C m) from the hippocampal ECF and lateral ventricle CSF were converted to the unbound drug concentration (C u) at the target site using the following formula: C u = C m/R dial.
A total of 32 rats were randomly divided into the following groups: • Control group, N = 12: vehicle solution + LVFX (50 mg/kg). • TAR group, N = 5: Tariquidar (8 mg/kg) + LVFX (50 mg/kg). • Ko143 group, N = 5: Ko143 (15 mg/kg) + LVFX (50 mg/kg). • MK571 group, N = 5: MK571 (20 mg/kg) + LVFX (50 mg/kg). • PRO group, N = 5: Probenecid (50 mg/kg) + LVFX (50 mg/kg).
Levofloxacin was freshly dissolved in isotonic saline and administered via tail vein injection. Thirty minutes before LVFX administration, the intervention drugs of each group were injected intraperitoneally. To reduce the possible effect of solvents on BBB or BCSFB permeability of LVFX, we prioritized water as the solvent. However, Tariquidar and Ko143 are insoluble in water, and a cosolvent must be used to prepare agents that animals can tolerate. According to the different physicochemical properties of these four inhibitors, the preparation of each transporter inhibitor solution in this experiment was as follows. • P‐glycoprotein (P‐gp) inhibitor Tariquidar[22]: Tariquidar was freshly dissolved in DMSO to 8 mg/ml and then diluted to 4 mg/ml with a solution containing 10% Tween‐80, 25% PEG300, and 65% sterile water. • Breast cancer resistance protein (BCRP) inhibitor Ko143[23]: Ko143 was freshly dissolved in DMSO to 15 mg/ml and then diluted to 7.5 mg/ml with a solution containing 10% Tween‐80, 25% PEG300, and 65% sterile water. • Multidrug resistance‐associated proteins (MRPs) inhibitor MK571[24]: MK571 sodium salt hydrate was dissolved in 1.25% (w/v) aq sodium hydrogen carbonate (NaHCO3) solution to obtain a concentration of 10 mg/ml. • Organic anion transporters (OATs) inhibitor probenecid[25]: Probenecid was dissolved in NaOH (pH = 9.0–9.2) alkalized physiological saline to obtain a concentration of 25 mg/ml.
The pipelines where the blood and brain probes were installed were perfused at the speed of 2 μl/min with ACD solution and ACSF, respectively. Two brain probes were inserted into guide cannulas of the target site and allowed to equilibrate for 1 h. Subsequently, the rats were treated according to their corresponding groups in the device where they could move freely. Microdialyses samples were collected every 15 min using a fraction collector (EFC‐96, Eicom Co.) for 3 h and stored at 4°C until analysis. Finally, rats were anesthetized and decapitated, and their brain was harvested.

[1] = CSF (lateral ventricle microdialysate, unbound), CSF
[2] = brain ECF (hippocampal microdialysate, unbound), 30 min before LVFX, brain ECF

MRT (CSF (lateral ventricle microdialysate, unbound), 30 min before LVFX, CSF): 69.6 min | Tmax [1]: 15 min | AUC(0-inf) [1]: 4.94 µg·h/mL | Cmax [1]: 4.26 ± 0.32 µg/mL | half-life [1]: 41.8 ± 6.9 min | AUC(0-t) [1]: 4.65 µg·h/mL | Tmax [2]: 15 min | AUC(0-inf) [2]: 4.65 µg·h/mL | Cmax [2]: 3.71 ± 0.25 µg/mL | MRT [2]: 75.5 min | half-life [2]: 44.4 ± 10.4 min | AUC(0-t) [2]: 4.28 µg·h/mL | Tmax (30 min before LVFX, blood): 15 min | AUC(0-inf) (30 min before LVFX, blood): 11.9 µg·h/mL | Cmax (30 min before LVFX, blood): 11 ± 0.77 µg/mL | MRT (30 min before LVFX, blood): 67.7 min | half-life (30 min before LVFX, blood): 42.8 ± 7.7 min | AUC(0-t) (30 min before LVFX, blood): 11.1 µg·h/mL
SMILES: C[C@H]1COc2c(N3CCN(C)CC3)c(F)cc3c(=O)c(C(=O)O)cn1c23 [LVFX, Levofloxacin]
